Laboratory results published in PubChem BioAssay AID2060897 (Molecular Pharmacology Branch, DTP, NCI, 2025).

Tested on: 966289-007-R4-J1-PDC complex spheroid viability
Test: Anticancer human tumor 966289-007-R4-J1-PDC patient-derived pancreatic adenocarcinoma cell line growth inhibition [RAS]
Details: for viability, T/C: stronger effect = lower value
Procedure, shortened: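 Tumour cells grown as complex spheroids with HUVEC endothelial cells and mesenchymal stem cells, treated with RAS pathway inhibitor combinations. Each agent spans half-log steps from near clinical Cmax, or 10 microM where Cmax is unknown.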

[1] = curve of first compound, second compound 0.000949 µM
[2] = curve of first compound, second compound 0.003 µM
[3] = curve of first compound, second compound 0.00949 µM
[4] = curve of first compound, second compound 0.03 µM
[5] = curve of first compound, second compound 0.0949 µM
[6] = curve of first compound, second compound 0.3 µM
[7] = second compound 0.000949 µM, first compound 0.00316 µM
[8] = second compound 0.000949 µM, first compound 0.01 µM
[9] = second compound 0.000949 µM, first compound 0.0316 µM
[10] = second compound 0.000949 µM, first compound 0.1 µM
[11] = second compound 0.000949 µM, first compound 0.316 µM
[12] = second compound 0.000949 µM, first compound 1 µM
[13] = second compound 0.003 µM, first compound 0.00316 µM
[14] = second compound 0.003 µM, first compound 0.01 µM
[15] = second compound 0.003 µM, first compound 0.0316 µM
[16] = second compound 0.003 µM, first compound 0.1 µM
[17] = second compound 0.003 µM, first compound 0.316 µM
[18] = second compound 0.003 µM, first compound 1 µM
[19] = second compound 0.00949 µM, first compound 0.00316 µM
[20] = second compound 0.00949 µM, first compound 0.01 µM
[21] = second compound 0.00949 µM, first compound 0.0316 µM
[22] = second compound 0.00949 µM, first compound 0.1 µM
[23] = second compound 0.00949 µM, first compound 0.316 µM
[24] = second compound 0.00949 µM, first compound 1 µM
[25] = second compound 0.03 µM, first compound 0.00316 µM
[26] = second compound 0.03 µM, first compound 0.01 µM
[27] = second compound 0.03 µM, first compound 0.0316 µM
[28] = second compound 0.03 µM, first compound 0.1 µM
[29] = second compound 0.03 µM, first compound 0.316 µM
[30] = second compound 0.03 µM, first compound 1 µM
[31] = second compound 0.0949 µM, first compound 0.00316 µM
[32] = second compound 0.0949 µM, first compound 0.01 µM
[33] = second compound 0.0949 µM, first compound 0.0316 µM
[34] = second compound 0.0949 µM, first compound 0.1 µM
[35] = second compound 0.0949 µM, first compound 0.316 µM
[36] = second compound 0.0949 µM, first compound 1 µM
[37] = second compound 0.3 µM, first compound 0.00316 µM
[38] = second compound 0.3 µM, first compound 0.01 µM
[39] = second compound 0.3 µM, first compound 0.0316 µM
[40] = second compound 0.3 µM, first compound 0.1 µM
[41] = second compound 0.3 µM, first compound 0.316 µM
[42] = second compound 0.3 µM, first compound 1 µM
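Also: spheroids exposed to agents for one week before readout.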
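For viability, T/C in this document: percent viability relative to DMSO vehicle control wells as 100%.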

C=CC(=O)N1CCN(c2nc(OCC3CCCN3C)nc3c(F)c(-c4nc(N)cc(C)c4C(F)(F)F)c(Cl)cc23)C(C)C1 (stereo not given) + CCn1c(-c2cccnc2C(C)OC)c2c3cc(ccc31)N1CCOC(CC(NC(=O)C(C(C)C)N(C)C(=O)C3(F)CCN(C(=O)C#CC(C)(C)N(C)C)CC3)C(=O)N3CCCC(N3)C(=O)OCC(C)(C)C2)C1
IC50 [1]: > 1000 nM
IC50 [2]: > 1000 nM
IC50 [3]: > 1000 nM
IC50 [4]: > 1000 nM
IC50 [5]: > 1000 nM
IC50 [6]: > 1000 nM
viability, T/C [7]: 94.7%
viability, T/C [8]: 74.5%
viability, T/C [9]: 93.2%
viability, T/C [10]: 51%
viability, T/C [11]: 67.2%
viability, T/C [12]: 76.7%
viability, T/C [13]: 105%
viability, T/C [14]: 66.2%
viability, T/C [15]: 90%
viability, T/C [16]: 50.3%
viability, T/C [17]: 85.4%
viability, T/C [18]: 69.7%
viability, T/C [19]: 56.1%
viability, T/C [20]: 81.2%
viability, T/C [21]: 94.1%
viability, T/C [22]: 58.1%
viability, T/C [23]: 87.2%
viability, T/C [24]: 84%
viability, T/C [25]: 52%
viability, T/C [26]: 65.9%
viability, T/C [27]: 79.7%
viability, T/C [28]: 59.8%
viability, T/C [29]: 102%
viability, T/C [30]: 85.3%
viability, T/C [31]: 61.3%
viability, T/C [32]: 76.5%
viability, T/C [33]: 95%
viability, T/C [34]: 93.5%
viability, T/C [35]: 91%
viability, T/C [36]: 93.4%
viability, T/C [37]: 87.8%
viability, T/C [38]: 90.8%
viability, T/C [39]: 106%
viability, T/C [40]: 92.2%
viability, T/C [41]: 127%
viability, T/C [42]: 91.6%

C=CC(=O)N1CCN(c2nc(OCC3CCCN3C)nc3c(F)c(-c4nc(N)cc(C)c4C(F)(F)F)c(Cl)cc23)C(C)C1 (stereo not given)
IC50 (compound alone, run of 06/10/2024): > 1000 nM
IC50 (curve of compound): > 1000 nM

C=CC(=O)Nc1cc(Nc2nccc(-c3cn(C)c4ccccc34)n2)c(OC)cc1N(C)CCN(C)C + CCn1c(-c2cccnc2C(C)OC)c2c3cc(ccc31)N1CCOC(CC(NC(=O)C(C(C)C)N(C)C(=O)C3(F)CCN(C(=O)C#CC(C)(C)N(C)C)CC3)C(=O)N3CCCC(N3)C(=O)OCC(C)(C)C2)C1
IC50 [1]: > 1000 nM
IC50 [2]: > 1000 nM
IC50 [3]: > 1000 nM
IC50 [4]: > 1000 nM
IC50 [5]: > 1000 nM
IC50 [6]: > 1000 nM
viability, T/C [7]: 101%
viability, T/C [8]: 101%
viability, T/C [9]: 99.9%
viability, T/C [10]: 56.5%
viability, T/C [11]: 77.5%
viability, T/C [12]: 67.8%
viability, T/C [13]: 106%
viability, T/C [14]: 84.3%
viability, T/C [15]: 82.1%
viability, T/C [16]: 56.4%
viability, T/C [17]: 55.1%
viability, T/C [18]: 61.9%
viability, T/C [19]: 87%
viability, T/C [20]: 97%
viability, T/C [21]: 90.8%
viability, T/C [22]: 66.4%
viability, T/C [23]: 78.5%
viability, T/C [24]: 78.4%
viability, T/C [25]: 65%
viability, T/C [26]: 90%
viability, T/C [27]: 99.3%
viability, T/C [28]: 69.8%
viability, T/C [29]: 92.7%
viability, T/C [30]: 77.5%
viability, T/C [31]: 76.9%
viability, T/C [32]: 93.5%
viability, T/C [33]: 117%
viability, T/C [34]: 67.8%
viability, T/C [35]: 113%
viability, T/C [36]: 67.7%
viability, T/C [37]: 81.5%
viability, T/C [38]: 107%
viability, T/C [39]: 111%
viability, T/C [40]: 101%
viability, T/C [41]: 108%
viability, T/C [42]: 90.8%

CCn1c(-c2cc(N3CCN(C)CC3)cnc2C(C)OC)c2c3cc(ccc31)-c1csc(n1)CC(NC(=O)C1CC1C)C(=O)N1CCCC(N1)C(=O)OCC(C)(C)C2 (stereo not given)
viability, T/C (compound 0.000949 µM): 97.8% [middle of 8 runs]
IC50 (compound alone, run of 05/20/2024): > 300 nM

CC(C)NCC(C(=O)N1CCN(c2ncnc3c2C(C)CC3O)CC1)c1ccc(Cl)cc1 (stereo not given) + CCn1c(-c2cccnc2C(C)OC)c2c3cc(ccc31)N1CCOC(CC(NC(=O)C(C(C)C)N(C)C(=O)C3(F)CCN(C(=O)C#CC(C)(C)N(C)C)CC3)C(=O)N3CCCC(N3)C(=O)OCC(C)(C)C2)C1
IC50 [1]: 2760 nM
IC50 [2]: 4850 nM
IC50 [3]: 5110 nM
IC50 [4]: 6160 nM
IC50 [5]: 6640 nM
IC50 [6]: 5350 nM
viability, T/C [9]: 99.4%
viability, T/C [10]: 94.4%
viability, T/C [11]: 117%
viability, T/C [12]: 85.7%
viability, T/C (second compound 0.000949 µM, first compound 3.16 µM): 46.3%
viability, T/C (second compound 0.000949 µM, first compound 10 µM): 28.5%
viability, T/C [15]: 99.2%
viability, T/C [16]: 82.3%
viability, T/C [17]: 98.9%
viability, T/C [18]: 94.6%
viability, T/C (second compound 0.003 µM, first compound 3.16 µM): 62.2%
viability, T/C (second compound 0.003 µM, first compound 10 µM): 29.4%
viability, T/C [21]: 70.3%
viability, T/C [22]: 89.2%
viability, T/C [23]: 97.2%
viability, T/C [24]: 114%
viability, T/C (second compound 0.00949 µM, first compound 3.16 µM): 62%
viability, T/C (second compound 0.00949 µM, first compound 10 µM): 33.2%
viability, T/C [27]: 57.3%
viability, T/C [28]: 72.6%
viability, T/C [29]: 103%
viability, T/C [30]: 92.4%
viability, T/C (second compound 0.03 µM, first compound 3.16 µM): 62.3%
viability, T/C (second compound 0.03 µM, first compound 10 µM): 41.1%
viability, T/C [33]: 63.9%
viability, T/C [34]: 94.5%
viability, T/C [35]: 126%
viability, T/C [36]: 90.8%
viability, T/C (second compound 0.0949 µM, first compound 3.16 µM): 75.6%
viability, T/C (second compound 0.0949 µM, first compound 10 µM): 35.9%
viability, T/C [39]: 92.5%
viability, T/C [40]: 97%
viability, T/C [41]: 107%
viability, T/C [42]: 99.9%
viability, T/C (second compound 0.3 µM, first compound 3.16 µM): 58%
viability, T/C (second compound 0.3 µM, first compound 10 µM): 40.4%
